These results are taken from US6620810B2, “4-thioxo-4,7-dihydro-thieno[2,3-b]pyridine-5-carboxamides as antiviral agents” (Pharmacia & Upjohn Company, priority 2001, dated 2003).

The structures appear in SMILES notation. pIC50: −log10 of the molar value.

Holding throughout (format): biochemical
In one assay the target is T1, HCMV polymerase (Human cytomegalovirus, UniProt P08546).
T1 construct: made in house; host or cells: recombinant baculovirus-infected SF-9 cells
Nature of the assay: HCMV polymerase scintillation proximity assay (Test A, modified version). The following applies: modified SPA assay: compounds diluted in 100% DMSO, 4.5 mM DTT in polymerase buffer. The protocol:
The HCMV polymerase assay is performed using a scintillation proximity assay (SPA) as described in several references, such as N. D. Cook, et al., Pharmaceutical Manufacturing International, pages 49-53 (1992); K. Takeuchi, Laboratory Practice, September issue (1992); U.S. Pat. No. 4,568,649 (1986); which are incorporated by reference herein. Reactions are performed in 96-well plates. The assay is conducted in 100 μl volume with 5.4 mM HEPES (pH 7.5), 11.7 mM KCl, 4.5 mM MgCl2, 0.36 mg/ml BSA, and 90 nM ^3H-dTTP. Assays are run with and without CHAPS, (3-[(3-cholamidopropyl)-dimethylammonio]-1-propane-sulfonate) at a final concentration of 2 mM. HCMV polymerase is diluted in enzyme dilution buffer containing 50% glycerol, 250 mM NaCl, 10 mM HEPES (pH 7.5), 100 μg/ml BSA, and 0.01% sodium azide. […] Plates are incubated 10 min. at 37° C., then equilibrated to room temperature, and counted on a Packard Topcount. Linear regressions are performed and IC50's are calculated using computer software.
A modified version of the above HCMV polymerase assay is performed as described above, but with the following changes: Compounds are diluted in 100% DMSO until final dilution into assay buffer. […] In Table 1, the term “nd” refers to activity data not determined.
A general note: SPA uses beads or plates that emit light when radiolabelled molecules are held near them.

Another assay has as its target HSV polymerase (Human herpesvirus 1, UniProt P04293). The experiment in a line: HSV polymerase assay (Table 1).
For the next assay, the target named is VZV polymerase (Varicella-zoster virus, UniProt P09252). The experiment in a line: VZV polymerase assay (Table 1).
VZV polymerase, sequence (P09252 whole entry): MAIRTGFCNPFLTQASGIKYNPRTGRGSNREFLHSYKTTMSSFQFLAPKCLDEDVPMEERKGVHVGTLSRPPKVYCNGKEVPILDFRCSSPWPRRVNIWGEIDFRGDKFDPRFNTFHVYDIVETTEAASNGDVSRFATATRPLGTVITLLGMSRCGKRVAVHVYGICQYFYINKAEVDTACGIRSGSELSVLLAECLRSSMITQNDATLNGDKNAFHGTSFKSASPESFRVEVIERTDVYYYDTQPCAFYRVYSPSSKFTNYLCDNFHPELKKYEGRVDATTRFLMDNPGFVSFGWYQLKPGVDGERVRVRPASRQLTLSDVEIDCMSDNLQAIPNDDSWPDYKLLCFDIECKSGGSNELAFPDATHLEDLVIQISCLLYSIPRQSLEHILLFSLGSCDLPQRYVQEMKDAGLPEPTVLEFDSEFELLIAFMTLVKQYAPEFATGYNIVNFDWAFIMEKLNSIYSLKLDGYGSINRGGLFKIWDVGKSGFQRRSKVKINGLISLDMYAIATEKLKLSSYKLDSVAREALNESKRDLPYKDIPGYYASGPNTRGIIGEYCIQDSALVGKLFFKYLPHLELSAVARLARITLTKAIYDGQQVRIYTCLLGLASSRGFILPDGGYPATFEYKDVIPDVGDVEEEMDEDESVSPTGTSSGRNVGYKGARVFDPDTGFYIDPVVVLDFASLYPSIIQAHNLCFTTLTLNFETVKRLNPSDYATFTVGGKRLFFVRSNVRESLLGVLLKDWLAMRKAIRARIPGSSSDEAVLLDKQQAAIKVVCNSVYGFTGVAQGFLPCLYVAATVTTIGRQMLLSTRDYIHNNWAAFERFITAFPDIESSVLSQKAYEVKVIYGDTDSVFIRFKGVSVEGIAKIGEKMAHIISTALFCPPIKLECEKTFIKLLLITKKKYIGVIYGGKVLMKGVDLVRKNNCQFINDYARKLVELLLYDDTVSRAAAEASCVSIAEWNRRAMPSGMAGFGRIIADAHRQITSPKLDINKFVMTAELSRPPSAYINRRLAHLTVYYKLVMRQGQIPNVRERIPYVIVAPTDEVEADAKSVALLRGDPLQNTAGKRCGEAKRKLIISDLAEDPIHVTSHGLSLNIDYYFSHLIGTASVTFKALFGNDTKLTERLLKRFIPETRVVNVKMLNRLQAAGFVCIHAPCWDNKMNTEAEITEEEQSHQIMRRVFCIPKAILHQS

T1 sequence (P08546 whole entry): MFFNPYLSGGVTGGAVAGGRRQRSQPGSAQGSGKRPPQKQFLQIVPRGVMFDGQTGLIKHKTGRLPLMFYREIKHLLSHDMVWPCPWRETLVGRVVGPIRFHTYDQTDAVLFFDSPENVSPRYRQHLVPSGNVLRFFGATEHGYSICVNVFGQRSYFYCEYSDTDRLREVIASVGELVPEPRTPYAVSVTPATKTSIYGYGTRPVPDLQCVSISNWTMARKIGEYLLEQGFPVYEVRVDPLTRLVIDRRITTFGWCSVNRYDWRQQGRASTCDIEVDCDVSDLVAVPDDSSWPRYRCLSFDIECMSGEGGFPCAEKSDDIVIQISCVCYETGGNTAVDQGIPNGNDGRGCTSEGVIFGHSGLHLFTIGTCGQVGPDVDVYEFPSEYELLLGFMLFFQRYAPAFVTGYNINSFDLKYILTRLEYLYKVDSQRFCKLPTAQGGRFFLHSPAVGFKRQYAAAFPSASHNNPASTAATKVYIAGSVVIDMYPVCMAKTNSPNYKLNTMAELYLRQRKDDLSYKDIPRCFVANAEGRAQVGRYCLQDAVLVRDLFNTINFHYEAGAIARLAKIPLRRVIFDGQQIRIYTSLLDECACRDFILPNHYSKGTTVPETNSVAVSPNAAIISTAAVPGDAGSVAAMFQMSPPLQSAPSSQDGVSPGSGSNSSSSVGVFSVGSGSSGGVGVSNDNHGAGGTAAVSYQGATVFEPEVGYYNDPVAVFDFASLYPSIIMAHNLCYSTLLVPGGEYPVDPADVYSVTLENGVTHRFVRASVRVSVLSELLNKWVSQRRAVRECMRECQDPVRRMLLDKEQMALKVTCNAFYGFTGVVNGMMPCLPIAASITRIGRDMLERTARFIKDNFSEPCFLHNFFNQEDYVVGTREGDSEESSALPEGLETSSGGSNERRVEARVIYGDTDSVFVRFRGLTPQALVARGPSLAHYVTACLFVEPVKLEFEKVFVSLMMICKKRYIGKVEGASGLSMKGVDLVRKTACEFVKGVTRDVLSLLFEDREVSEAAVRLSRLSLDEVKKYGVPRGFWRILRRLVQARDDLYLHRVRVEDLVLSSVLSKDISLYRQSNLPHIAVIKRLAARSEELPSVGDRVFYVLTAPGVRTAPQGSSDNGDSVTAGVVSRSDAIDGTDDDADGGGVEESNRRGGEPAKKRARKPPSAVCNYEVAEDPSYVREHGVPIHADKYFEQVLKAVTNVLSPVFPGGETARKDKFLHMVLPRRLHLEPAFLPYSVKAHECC
HSV polymerase, sequence (P04293 whole entry): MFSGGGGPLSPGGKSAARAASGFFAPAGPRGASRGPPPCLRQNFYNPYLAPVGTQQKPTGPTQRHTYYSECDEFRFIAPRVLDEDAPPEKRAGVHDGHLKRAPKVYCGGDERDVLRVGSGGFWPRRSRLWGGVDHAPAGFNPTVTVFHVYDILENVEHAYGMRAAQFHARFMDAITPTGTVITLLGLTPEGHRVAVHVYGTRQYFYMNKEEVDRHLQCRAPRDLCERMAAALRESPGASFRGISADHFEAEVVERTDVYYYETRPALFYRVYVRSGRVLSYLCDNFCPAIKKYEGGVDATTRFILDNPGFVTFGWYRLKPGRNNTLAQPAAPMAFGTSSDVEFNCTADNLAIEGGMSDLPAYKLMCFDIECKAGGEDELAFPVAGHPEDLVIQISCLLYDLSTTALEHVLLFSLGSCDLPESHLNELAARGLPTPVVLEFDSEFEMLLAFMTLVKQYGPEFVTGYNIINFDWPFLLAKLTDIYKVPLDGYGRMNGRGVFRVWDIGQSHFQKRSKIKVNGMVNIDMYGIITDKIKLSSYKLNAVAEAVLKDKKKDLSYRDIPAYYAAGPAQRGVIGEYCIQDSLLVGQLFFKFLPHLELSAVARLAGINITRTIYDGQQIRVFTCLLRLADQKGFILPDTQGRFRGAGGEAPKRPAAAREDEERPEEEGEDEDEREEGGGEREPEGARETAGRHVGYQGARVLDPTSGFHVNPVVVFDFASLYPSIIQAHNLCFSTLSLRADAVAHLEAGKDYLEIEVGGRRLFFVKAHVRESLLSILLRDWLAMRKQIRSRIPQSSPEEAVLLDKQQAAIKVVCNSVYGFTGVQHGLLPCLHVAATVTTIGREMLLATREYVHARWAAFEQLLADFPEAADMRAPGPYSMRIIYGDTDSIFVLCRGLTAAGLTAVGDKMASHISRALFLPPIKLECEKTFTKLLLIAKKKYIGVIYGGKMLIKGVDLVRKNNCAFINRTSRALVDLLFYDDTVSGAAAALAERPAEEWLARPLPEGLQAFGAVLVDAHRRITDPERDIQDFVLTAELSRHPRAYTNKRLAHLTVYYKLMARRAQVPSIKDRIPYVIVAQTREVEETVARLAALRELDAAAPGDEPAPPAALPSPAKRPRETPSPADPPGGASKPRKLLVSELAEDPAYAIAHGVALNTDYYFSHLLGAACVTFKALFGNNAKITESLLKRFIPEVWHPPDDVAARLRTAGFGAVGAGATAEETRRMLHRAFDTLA

Regarding `Cn1cc(C(=O)NCc2ccc(Cl)cc2)c(=S)c2cc(CN3CCOCC3)sc21` [Example 1, N-(4-chlorobenzyl)-7-methyl-2-(4-morpholinylmethyl)-4-thioxo-4,7-dihydrothieno[2,3-b]pyridine-5-carboxamide], the negative logarithm of the IC50 (pIC50) at HCMV polymerase is 6.20; against HSV polymerase it was 6.80; on VZV polymerase, 7.10.

What is called pIC50 is the IC50 on a negative log10 scale, so that one unit is a factor of ten. Higher therefore signals a low IC50.
